# In PubChem BioAssay AID192 (DTP/NCI, 2004):
# Values joined by “and” are separate entries in the source; they are usually repeats but may differ in a detail not shown here. Equal entries are not always repeated. Toxic doses and inconclusive results are not listed.
# Test system: BDF1 mice, B16 melanoma ip, median survival T/C
# Experiment: NCI In Vivo Anticancer Drug Screen. Data for tumor model B16 Melanoma (intraperitoneal) in B6D2F1 (BDF1) mice
# Conditions: endpoint: median survival time, higher = longer survival
# How it was run: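 Mice with transplantable tumors; drug vs vehicle groups; endpoint survival or tumor size; value = T/C.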
# [1] = dose: 100.0 mg/kg/injection, schedule: Q01DX009 (ip), vehicle: saline with Tween-80
# [2] = dose: 50.0 mg/kg/injection, schedule: Q01DX009 (ip), vehicle: saline with Tween-80
compound,measurement,setting,value
CC(=O)OCC(Br)C(Br)COC(C)=O (centres undefined),T/C,[1],100 % of control
same,T/C,"dose: 200.0 mg/kg/injection, schedule: Q01DX009 (ip), vehicle: saline with Tween-80",97 % of control
same,T/C,"dose: 400.0 mg/kg/injection, schedule: Q01DX009 (ip), vehicle: saline with Tween-80",97 % of control
CC(=O)CCCc1ccccc1,T/C,"dose: 100.0 mg/kg/injection, schedule: Q01DX009 (ip), vehicle: saline",112 % of control
same,T/C,"dose: 200.0 mg/kg/injection, schedule: Q01DX009 (ip), vehicle: saline",116 % of control
same,T/C,"dose: 400.0 mg/kg/injection, schedule: Q01DX009 (ip), vehicle: saline",98 % of control
O=C(O)O.O=C(O)O.O=C(O)O.[Co],T/C,"dose: 25.0 mg/kg/injection, schedule: Q04DX003 (ip), vehicle: saline with Tween-80",88 % of control
same,T/C,"dose: 50.0 mg/kg/injection, schedule: Q04DX003 (ip), vehicle: saline with Tween-80",91 % of control
OC(C1CO1)C(O)C1CO1 (centres undefined),T/C,"dose: 0.12 mg/kg/injection, schedule: Q01DX009 (ip), vehicle: saline",118 % of control
same,T/C,"dose: 0.13 mg/kg/injection, schedule: Q03HX024 (ip), vehicle: saline",114 % of control
same,T/C,"dose: 0.25 mg/kg/injection, schedule: Q01DX009 (ip), vehicle: saline",104 % of control and 107 % of control and 110 % of control
same,T/C,"dose: 0.25 mg/kg/injection, schedule: Q03HX008 (ip), vehicle: saline",123 % of control
same,T/C,"dose: 0.25 mg/kg/injection, schedule: Q03HX016 (ip), vehicle: saline",120 % of control
same,T/C,"dose: 0.5 mg/kg/injection, schedule: Q01DX005 (ip), vehicle: saline",113 % of control
same,T/C,"dose: 0.5 mg/kg/injection, schedule: Q03HX008 (ip), vehicle: saline",120 % of control
same,T/C,"dose: 1.0 mg/kg/injection, schedule: Q01DX005 (ip), vehicle: saline",119 % of control
same,T/C,"dose: 1.0 mg/kg/injection, schedule: Q03HX016 (ip), vehicle: saline",152 % of control
same,T/C,"dose: 1.0 mg/kg/injection, schedule: Q03HX024 (ip), vehicle: saline",172 % of control
same,T/C,"dose: 2.0 mg/kg/injection, schedule: Q01DX005 (ip), vehicle: saline",153 % of control
same,T/C,"dose: 2.0 mg/kg/injection, schedule: Q03HX008 (ip), vehicle: saline",160 % of control
same,T/C,"dose: 2.0 mg/kg/injection, schedule: Q03HX016 (ip), vehicle: saline",214 % of control
same,T/C,"dose: 4.0 mg/kg/injection, schedule: Q01DX001 (ip), vehicle: saline",158 % of control
same,T/C,"dose: 4.0 mg/kg/injection, schedule: Q01DX005 (ip), vehicle: saline",192 % of control
same,T/C,"dose: 4.0 mg/kg/injection, schedule: Q01DX009 (ip), vehicle: saline sonified",184 % of control
same,T/C,"dose: 4.0 mg/kg/injection, schedule: Q08DX002 (ip), vehicle: saline",158 % of control
same,T/C,"dose: 8.0 mg/kg/injection, schedule: Q01DX001 (ip), vehicle: saline",204 % of control
same,T/C,"dose: 8.0 mg/kg/injection, schedule: Q04DX003 (ip), vehicle: saline",171 % of control
same,T/C,"dose: 8.0 mg/kg/injection, schedule: Q08DX002 (ip), vehicle: saline",208 % of control
O=[N+]([O-])c1cc(Br)cc2c1nc(Cl)c1ccccc12,T/C,[2],94 % of control
same,T/C,[1],88 % of control
O=C(O)C1CCCCC1C(=O)Nc1ccc(F)cc1 (centres undefined),T/C,"dose: 25.0 mg/kg/injection, schedule: Q01DX009 (ip), vehicle: saline with Tween-80",105 % of control
same,T/C,[2],105 % of control
same,T/C,[1],88 % of control and 96 % of control
CN1CCC=C(CN2c3ccccc3Sc3ccc(Cl)cc32)C1,T/C,"dose: 12.5 mg/kg/injection, schedule: Q01DX009 (ip), vehicle: saline",95 % of control
same,T/C,"dose: 25.0 mg/kg/injection, schedule: Q01DX009 (ip), vehicle: saline",94 % of control
CC[C@]1(O)C[C@H]2CN(CCc3c([nH]c4ccccc34)[C@@](C(=O)OC)(c3cc4c(cc3OC)N(C)[C@H]3[C@@](O)(C(=O)OC)[C@H](OC(C)=O)[C@]5(CC)C=CCN6CC[C@]43[C@@H]65)C2)C1,T/C,"dose: 0.03 mg/kg/injection, schedule: Q01DX009 (ip), vehicle: saline",152 % of control
same,T/C,"dose: 0.05 mg/kg/injection, schedule: Q01DX009 (ip), vehicle: saline",161 % of control
same,T/C,"dose: 0.06 mg/kg/injection, schedule: Q01DX009 (ip), vehicle: water",165 % of control
same,T/C,"dose: 0.1 mg/kg/injection, schedule: Q01DX009 (ip), vehicle: saline",152 % of control and 155 % of control
same,T/C,"dose: 0.12 mg/kg/injection, schedule: Q01DX009 (ip), vehicle: water",110 % of control
same,T/C,"dose: 0.2 mg/kg/injection, schedule: Q01DX009 (ip), vehicle: saline",186 % of control and 189 % of control
same,T/C,"dose: 0.22 mg/kg/injection, schedule: Q01DX009 (ip), vehicle: saline",196 % of control
same,T/C,"dose: 0.22 mg/kg/injection, schedule: Q01DX009 (ip), vehicle: water",197 % of control
same,T/C,"dose: 0.25 mg/kg/injection, schedule: Q01DX009 (ip), vehicle: water",163 % of control and 216 % of control
same,T/C,"dose: 0.36 mg/kg/injection, schedule: Q01DX009 (ip), vehicle: saline",240 % of control
same,T/C,"dose: 0.36 mg/kg/injection, schedule: Q01DX009 (ip), vehicle: water",181 % of control
same,T/C,"dose: 0.39 mg/kg/injection, schedule: Q04DX003 (ip), vehicle: saline",162 % of control
same,T/C,"dose: 0.4 mg/kg/injection, schedule: Q01DX009 (ip), vehicle: saline",219 % of control
same,T/C,"dose: 0.5 mg/kg/injection, schedule: Q04DX003 (ip), vehicle: saline",154 % of control
same,T/C,"dose: 0.6 mg/kg/injection, schedule: Q01DX009 (ip), vehicle: saline",250 % of control
same,T/C,"dose: 0.63 mg/kg/injection, schedule: Q04DX003 (ip), vehicle: saline",151 % of control
same,T/C,"dose: 0.65 mg/kg/injection, schedule: Q04DX003 (ip), vehicle: saline",164 % of control
same,T/C,"dose: 0.8 mg/kg/injection, schedule: Q01DX009 (ip), vehicle: saline",260 % of control and 299 % of control
same,T/C,"dose: 0.8 mg/kg/injection, schedule: Q04DX003 (ip), vehicle: water",161 % of control
same,T/C,"dose: 1.0 mg/kg/injection, schedule: Q04DX003 (ip), vehicle: saline",170 % of control
same,T/C,"dose: 1.08 mg/kg/injection, schedule: Q04DX003 (ip), vehicle: saline",201 % of control
same,T/C,"dose: 1.44 mg/kg/injection, schedule: Q04DX003 (ip), vehicle: water",190 % of control
same,T/C,"dose: 1.8 mg/kg/injection, schedule: Q04DX003 (ip), vehicle: saline",206 % of control
same,T/C,"dose: 2.0 mg/kg/injection, schedule: Q04DX003 (ip), vehicle: saline",212 % of control
same,T/C,"dose: 2.4 mg/kg/injection, schedule: Q04DX003 (ip), vehicle: water",221 % of control
same,T/C,"dose: 2.5 mg/kg/injection, schedule: Q04DX003 (ip), vehicle: saline",189 % of control
same,T/C,"dose: 3.2 mg/kg/injection, schedule: Q04DX003 (ip), vehicle: water",224 % of control
same,T/C,"dose: 4.0 mg/kg/injection, schedule: Q04DX003 (ip), vehicle: saline",254 % of control
same,T/C,"dose: 4.8 mg/kg/injection, schedule: Q01DX001 (ip), vehicle: water",158 % of control
same,T/C,"dose: 216.0 micrograms/kg/injection, schedule: Q01DX009 (ip), vehicle: saline",197 % of control
same,T/C,"dose: 360.0 micrograms/kg/injection, schedule: Q01DX009 (ip), vehicle: water",155 % of control
same,T/C,"dose: 389.0 micrograms/kg/injection, schedule: Q04DX003 (ip), vehicle: saline",158 % of control and 163 % of control
same,T/C,"dose: 600.0 micrograms/kg/injection, schedule: Q01DX009 (ip), vehicle: saline",216 % of control
same,T/C,"dose: 648.0 micrograms/kg/injection, schedule: Q04DX003 (ip), vehicle: saline",152 % of control and 171 % of control and 197 % of control
same,T/C,"dose: 1080.0 micrograms/kg/injection, schedule: Q04DX003 (ip), vehicle: saline",198 % of control
same,T/C,"dose: 1800.0 micrograms/kg/injection, schedule: Q04DX003 (ip), vehicle: saline",203 % of control and 230 % of control
same,T/C,"dose: 3000.0 micrograms/kg/injection, schedule: Q04DX003 (ip), vehicle: saline",213 % of control and 267 % of control
CCC(=O)NC1=C(N2CC2C)C(=O)C(NC(=O)CC)=C(N2CC2C)C1=O (centres undefined),T/C,"dose: 0.39 mg/kg/injection, schedule: Q01DX009 (ip), vehicle: Klucel (hydroxypropylcellulose) (HPC)",119 % of control
same,T/C,"dose: 0.78 mg/kg/injection, schedule: Q01DX009 (ip), vehicle: Klucel (hydroxypropylcellulose) (HPC)",95 % of control
same,T/C,"dose: 1.56 mg/kg/injection, schedule: Q01DX009 (ip), vehicle: Klucel (hydroxypropylcellulose) (HPC)",111 % of control
same,T/C,"dose: 3.12 mg/kg/injection, schedule: Q01DX009 (ip), vehicle: Klucel (hydroxypropylcellulose) (HPC)",102 % of control
same,T/C,"dose: 6.25 mg/kg/injection, schedule: Q01DX009 (ip), vehicle: Klucel (hydroxypropylcellulose) (HPC)",123 % of control
O=C(NC(CSC(=O)OCc1ccccc1)C(=O)Oc1ccc([N+](=O)[O-])cc1)OCc1ccccc1 (centres undefined),T/C,"dose: 50.0 mg/kg/injection, schedule: Q01DX009 (ip), vehicle: Klucel (hydroxypropylcellulose) (HPC)",105 % of control
same,T/C,"dose: 200.0 mg/kg/injection, schedule: Q01DX009 (ip), vehicle: Klucel (hydroxypropylcellulose) (HPC)",100 % of control
